# Legend:
# Test in all cases: ≥ marks a high value that may be exact or a test limit, other limits are often not marked, values filed in µg/mL are converted to µM
# [1] = test system: Candida albicans ATCC 2002
# [2] = test system: Staphylococcus aureus ATCC 2592
# [3] = test system: Escherichia coli ATCC 25922
# Bacillus subtilis = test system: Bacillus subtilis
# [4] = test system: Bacillus subtilis ATCC 6633
# Shigella dysenteriae = test system: Shigella dysenteriae
# Staphylococcus aureus = test system: Staphylococcus aureus
# Escherichia coli B = test system: Escherichia coli B
# Bacillus subtilis 168 = test system: Bacillus subtilis 168
# Pseudomonas aeruginosa = test system: Pseudomonas aeruginosa
# [5] = test system: Staphylococcus aureus ATCC 6538
# [6] = test system: Pseudomonas aeruginosa ATCC 9027
# Enterococcus faecalis = test system: Enterococcus faecalis
# Escherichia coli = test system: Escherichia coli
# Acinetobacter baumannii = test system: Acinetobacter baumannii
# Klebsiella pneumoniae = test system: Klebsiella pneumoniae
# [7] = test system: Staphylococcus epidermidis
# Proteus mirabilis = test system: Proteus mirabilis
# Salmonella typhimurium = test system: Salmonella typhimurium
# Micrococcus luteus = test system: Micrococcus luteus
smiles,measurement,setting,value
CC[C@H](C)[C@@H]1NC(=O)[C@H](CO)NC(=O)[C@H](CCCCN)NC(=O)[C@H]([C@@H](C)O)NC(=O)[C@H](Cc2c[nH]c3ccccc23)NC(=O)[C@@H](NC(=O)CNC(=O)[C@H](CCCCN)NC(=O)[C@H](CC(C)C)NC(=O)[C@H](C)NC(=O)[C@H](C)N)CSSC[C@@H](C(=O)N[C@@H](Cc2ccccc2)C(=O)NCC(=O)N[C@@H](Cc2ccccc2)C(=O)O)NC(=O)[C@@H]2CCCN2C(=O)[C@H](CCCCN)NC(=O)[C@@H]2CCCN2C(=O)[C@@H]2CCCN2C1=O [AALKGCWTKSIPPKPCFGF],MIC,[1],2.32 µM
same,MIC,[2],1.03 µM
same,MIC,[3],1.38 µM
same,MIC,Bacillus subtilis,1.19 µM
CC[C@H](C)[C@H](NC(=O)[C@H](CCCCN)NC(=O)[C@@H]1CCCN1C(=O)[C@H](Cc1ccccc1)NC(=O)[C@@H](NC(=O)[C@H](CO)NC(=O)CNC(=O)[C@H](CC(C)C)NC(=O)[C@H](C)NC(=O)[C@H](CCCCN)NC(=O)[C@H](CC(C)C)NC(=O)[C@H](C)NC(=O)[C@@H](NC(=O)[C@@H]1CCCN1C(=O)[C@H](CC(C)C)NC(=O)[C@@H](N)Cc1ccccc1)[C@@H](C)CC)[C@@H](C)CC)C(=O)N[C@@H](CC(C)C)C(N)=O [FLPIALKALGSIFPKIL],MIC,[2],6.79 µM
same,MIC,[4],27.2 µM
CC[C@H](C)[C@H](NC(=O)[C@@H]1CCCN1C(=O)[C@H](CC(C)C)NC(=O)[C@@H](N)Cc1ccccc1)C(=O)N[C@H](C(=O)NCC(=O)N[C@@H](CCCCN)C(=O)N[C@@H](CC(C)C)C(=O)N[C@@H](CC(C)C)C(=O)N[C@@H](CO)C(=O)NCC(=O)N[C@@H](CC(C)C)C(=O)N[C@@H](CO)C(=O)NCC(=O)N[C@@H](CC(C)C)C(=O)N[C@@H](CC(C)C)C(N)=O)C(C)C [FLPIVGKLLSGLSGLL],MIC,[1],4 µM
same,MIC,[2],1.23 µM
same,MIC,Shigella dysenteriae,0.922 µM
same,MIC,[3],1.84 µM
CC[C@H](C)[C@H](NC(=O)CNC(=O)[C@H](CO)NC(=O)[C@H](CC(C)C)NC(=O)[C@@H](N)Cc1ccccc1)C(=O)N[C@@H](CC(C)C)C(=O)N[C@@H](CCCCN)C(=O)N[C@@H](CC(C)C)C(=O)N[C@@H](C)C(=O)N[C@@H](Cc1ccccc1)C(=O)N[C@@H](CCCCN)C(=O)N[C@H](C(=O)N1CCC[C@H]1C(=O)N[C@@H](CO)C(=O)N[C@H](C(=O)N[C@@H](CC(C)C)C(=O)N[C@H]1CSSC[C@@H](C(=O)O)NC(=O)[C@H](CC(N)=O)NC(=O)[C@H](CCCCN)NC(=O)[C@H](CC(C)C)NC(=O)[C@H](C(C)C)NC(=O)[C@H](C)NC1=O)C(C)C)[C@@H](C)CC [FLSGILKLAFKIPSVLCAVLKNC],MIC,[1],10.1 µM
same,MIC,[2],5.04 µM
same,MIC,[3],10.1 µM
same,MIC,Bacillus subtilis,20.2 µM
CC[C@H](C)[C@H](NC(=O)[C@H](CO)NC(=O)[C@H](CC(C)C)NC(=O)[C@H](Cc1ccccc1)NC(=O)CN)C(=O)N[C@@H](CC(C)C)C(=O)N[C@@H](CCCCN)C(=O)N[C@@H](CCCCN)C(=O)N[C@H](C(=O)N[C@@H](CC(C)C)C(=O)N1CCC[C@H]1C(=O)N[C@@H](CCCCN)C(=O)N[C@H](C(=O)N[C@@H](CCSC)C(=O)N[C@@H](C)C(=O)N[C@@H](Cc1cnc[nH]1)C(=O)N[C@@H](CCSC)C(=O)N[C@@H](CCCCN)C(N)=O)C(C)C)C(C)C [GFLSILKKVLPKVMAHMK],MIC,Staphylococcus aureus,40 µM
same,MIC,Escherichia coli B,1 µM
same,MIC,Bacillus subtilis 168,0.62 µM
same,MIC,Pseudomonas aeruginosa,22 µM
CC[C@H](C)[C@H](NC(=O)[C@H](Cc1cnc[nH]1)NC(=O)[C@H](CCCCN)NC(=O)[C@H](CC(C)C)NC(=O)[C@H](CCCCN)NC(=O)[C@H](CO)NC(=O)[C@H](CCSC)NC(=O)[C@H](Cc1c[nH]c2ccccc12)NC(=O)[C@H](CCCCN)NC(=O)CN)C(=O)N[C@@H](CC(C)C)C(=O)N[C@@H](CCCCN)C(N)=O [GKWMSKLKHILK],MIC,Staphylococcus aureus,> 100 µM
same,MIC,Escherichia coli B,≥ 45 µM
same,MIC,Bacillus subtilis 168,3.7 µM
same,MIC,Pseudomonas aeruginosa,> 100 µM
CC(C)C[C@H](NC(=O)CNC(=O)[C@@H](NC(=O)[C@@H]1CCCN1C(=O)[C@H](CC(C)C)NC(=O)CNC(=O)[C@H](CC(N)=O)NC(=O)[C@H](CC(N)=O)NC(=O)[C@H](Cc1ccc(O)cc1)NC(=O)[C@@H](NC(=O)[C@H](CCCN=C(N)N)NC(=O)[C@H](CS)NC(=O)[C@H](CCCN=C(N)N)NC(=O)[C@H](Cc1cnc[nH]1)NC(=O)[C@H](CCCCN)NC(=O)[C@@H](N)CCCCN)C(C)C)[C@@H](C)O)C(=O)N[C@@H](Cc1ccc(O)cc1)C(=O)N[C@@H](CCCN=C(N)N)C(=O)N[C@@H](Cc1c[nH]c2ccccc12)C(=O)N[C@@H](CS)C(N)=O [KKHRCRVYNNGLPTGLYRWC],MIC,[5],2.4 µM
CC(C)C[C@H](NC(=O)[C@H](CCCCN)NC(=O)[C@H](CCCCN)NC(=O)[C@H](C)NC(=O)[C@H](CC(C)C)NC(=O)[C@H](CCCCN)NC(=O)[C@H](CCCCN)NC(=O)[C@H](C)NC(=O)[C@H](Cc1ccccc1)NC(=O)[C@H](CCCCN)NC(=O)[C@H](CCCCN)NC(=O)[C@H](Cc1ccccc1)NC(=O)[C@H](CC(C)C)NC(=O)[C@H](CCCCN)NC(=O)[C@@H](NC(=O)[C@H](CCCCN)NC(=O)[C@H](CCCCN)NC(=O)[C@H](CCCCN)NC(=O)[C@H](Cc1ccccc1)NC(=O)[C@H](CC(C)C)NC(=O)[C@H](CCCCN)NC(=O)[C@H](Cc1c[nH]c2ccccc12)NC(=O)[C@@H](N)CCCCN)[C@@H](C)O)C(=O)O [KWKLFKKKTKLFKKFAKKLAKKL],MIC,[5],3.47 µM
same,MIC,[6],> 69.5 µM
CC[C@H](C)[C@H](NC(=O)[C@H](CC(N)=O)NC(=O)[C@H](CCCN=C(N)N)NC(=O)CNC(=O)[C@H](CCSC)NC(=O)[C@H](CCCCN)NC(=O)[C@H](CCC(=O)O)NC(=O)[C@@H](NC(=O)[C@H](CCCCN)NC(=O)[C@H](CC(C)C)NC(=O)[C@H](Cc1ccccc1)NC(=O)[C@@H](NC(=O)[C@H](CCCCN)NC(=O)[C@H](CCC(=O)O)NC(=O)[C@H](CCCCN)NC(=O)[C@@H]1CCCN1C(=O)[C@@H](N)CCSC)C(C)C)[C@@H](C)CC)C(=O)N[C@@H](CCCN=C(N)N)C(=O)N[C@@H](CC(N)=O)C(N)=O [MPKEKVFLKIEKMGRNIRN],MIC,[5],> 85.8 µM
same,MIC,[6],> 85.8 µM
CC[C@H](C)[C@H](NC(=O)CNC(=O)[C@H](CCCN=C(N)N)NC(=O)[C@H](Cc1ccc(O)cc1)NC(=O)[C@H](CC(C)C)NC(=O)[C@H](CCCCN)NC(=O)CNC(=O)[C@H](Cc1ccccc1)NC(=O)[C@@H](N)Cc1c[nH]c2ccccc12)C(=O)N[C@H](C(=O)N[C@@H](CCCCN)C(=O)N[C@H](C(=O)N[C@H](C(=O)N[C@@H](CCCCN)C(=O)N[C@@H](CCCCN)C(=O)N[C@H](C(=O)N[C@@H](CCCCN)C(=O)NCC(=O)N[C@@H](CC(C)C)C(=O)N[C@@H](CC(C)C)C(=O)N[C@@H](CCCCN)C(=O)NCC(=O)O)C(C)C)C(C)C)C(C)C)[C@@H](C)O [WFGKLYRGITKVVKKVKGLLKG],MIC,Enterococcus faecalis,1.2 µM
same,MIC,Staphylococcus aureus,9.9 µM
same,MIC,Escherichia coli,1.2 µM
same,MIC,Acinetobacter baumannii,0.6 µM
same,MIC,Klebsiella pneumoniae,0.6 µM
same,MIC,Pseudomonas aeruginosa,1.3 µM
same,MIC,[7],1.2 µM
CC(C)C[C@H](NC(=O)[C@H](C)NC(=O)CNC(=O)[C@H](CC(C)C)NC(=O)[C@@H](N)Cc1c[nH]c2ccccc12)C(=O)N[C@@H](Cc1ccccc1)C(=O)N[C@@H](CCCCN)C(=O)N[C@H](C(=O)N[C@@H](C)C(=O)N[C@@H](CO)C(=O)N[C@@H](CCCCN)C(=O)O)C(C)C [WLGALFKVASK],MIC,Proteus mirabilis,≥ 164 µM
same,MIC,Staphylococcus aureus,82 µM
same,MIC,Escherichia coli,164 µM
same,MIC,Salmonella typhimurium,≥ 164 µM
same,MIC,Shigella dysenteriae,≥ 164 µM
same,MIC,Klebsiella pneumoniae,> 164 µM
same,MIC,Micrococcus luteus,≥ 82 µM
same,MIC,Bacillus subtilis,≥ 82 µM
same,MIC,Pseudomonas aeruginosa,> 164 µM
same,MIC,[7],≥ 164 µM
